Experiments:
[1] = tested on: P. aeruginosa ATCC 9027; assay: micro-dilution broth method (MIC, MBC); format: cell-based, Pseudomonas aeruginosa
[2] = tested on: P. intermedia ATCC 25611; assay: micro-dilution broth method (MIC, MBC); format: cell-based
[3] = tested on: HepG2 cells; assay: MTT assay (mitochondrial activity), 72 h exposure; format: cell-based, human; settings: mean ± SD, n = 3
Procedure: The human hepatoma (HepG2) and colorectal adenocarcinoma (Caco-2) cells were purchased from the American Type Culture Collection: ATCC HB-8065 and ATCC HTB-37, respectively. These cells were cultured in Minimum Essential Medium Eagle (MEME) (ATCC). The murine fibroblasts cell line (Balb/c 3T3 clone A31) (gift from the Department of Swine Diseases of the National Veterinary Research Institute in Pulawy) was cultured in Dulbecco’s Modified Eagle Medium (DMEM) (ATCC). The media were supplemented with 10% BCS (Balb/c 3T3), 10% FBS (HepG2), 20% FBS (Caco-2), 1% L-glutamine, 1% antibiotic solution. The cells were maintained in 75 cm^2 cell culture flasks (NUNC) in a humidified incubator at 37 °C in an atmosphere of 5% CO2. The medium was refreshed every two or three days, and the cells were trypsinized by 0.25% trypsin–0.02% EDTA after reaching 70–80% confluence. Single cell suspensions were prepared and adjusted to a density of 2 × 10^5 cell/mL^−1 (HepG2), 1 × 10^5 cell/mL^−1 (Caco-2) and 5 × 10^4 cell/mL^−1 (Balb/c 3T3). The cell suspension was transferred to 96-well plates (100 µL/well) and incubated for 24 h before the exposure to the studied compounds. Stock solutions of ligands and metal complexes were prepared in sterile water and diluted with culture medium to obtain a concentration range from 0.1 to 10 µM. The final concentration of sterile water was 0.1% in the medium. […] As a negative control, cultured cells were grown in the absence of studied compounds. Each concentration was tested in six replicates in three independent experiments. Cytotoxicity was assessed after 72 h of exposure of the cells to compounds. The medium was not changed during the incubation time.
The metabolic activity of living cells was assessed by the measurement of the activity of dehydrogenases. […] The plate was shaken for 15 min at room temperature and transferred to a microplate reader Synergy HTX multi-mode reader (BioTek® Instruments Inc., Winooski, VT, USA) to measure the absorbance at 570 nm, using a blank as a reference. Cytotoxicity was expressed as a percentage of the negative control. […]

[4] = tested on: E. coli ATCC 25922; assay: micro-dilution broth method (MIC, MBC); format: cell-based, Escherichia coli
[5] = tested on: B. fragilis ATCC 10240; assay: micro-dilution broth method (MIC, MBC); format: cell-based, Bacteroides fragilis
[6] = tested on: C. perfringens ATCC 13124; assay: microbe, parasite or virus in culture; format: cell-based, Clostridium perfringens
[7] = tested on: B. subtilis ATCC 6633; assay: micro-dilution broth method (MIC, MBC); format: cell-based, Bacillus subtilis
[8] = tested on: P. acnes ATCC 11827; assay: micro-dilution broth method (MIC, MBC); format: cell-based, Propionibacterium acnes
[9] = tested on: V. parvula ATCC 10790; assay: micro-dilution broth method (MIC, MBC); format: cell-based, Veillonella parvula
[10] = tested on: C. jejunii ATCC 33291; assay: micro-dilution broth method (MIC, MBC); format: cell-based, Campylobacter jejunii
[11] = tested on: S. aureus ATCC 25923; assay: micro-dilution broth method (MIC, MBC); format: cell-based, Staphylococcus aureus
[12] = tested on: S. epidermidis ATCC 12228; assay: micro-dilution broth method (MIC, MBC); format: cell-based, Staphylococcus epidermidis
[13] = tested on: M. luteus ATCC 10240; assay: micro-dilution broth method (MIC, MBC); format: cell-based, Micrococcus luteus
[14] = tested on: E. faecalis ATCC 29212; assay: micro-dilution broth method (MIC, MBC); format: cell-based, Enterococcus faecalis
[15] = tested on: F. nucleatum ATCC 25586; assay: micro-dilution broth method (MIC, MBC); format: cell-based, Fusobacterium nucleatum
[16] = tested on: K. pneumoniae ATCC 13883; assay: micro-dilution broth method (MIC, MBC); format: cell-based, Klebsiella pneumoniae
[17] = P. aeruginosa ATCC 9027, value in brackets
[18] = P. intermedia ATCC 25611, value in brackets
[19] = E. coli ATCC 25922, value in brackets
[20] = B. fragilis ATCC 10240, value in brackets
[21] = C. perfringens ATCC 13124, value in brackets
[22] = B. subtilis ATCC 6633, value in brackets
[23] = P. acnes ATCC 11827, value in brackets
[24] = V. parvula ATCC 10790, value in brackets
[25] = C. jejunii ATCC 33291, value in brackets
[26] = S. aureus ATCC 25923, value in brackets
[27] = S. epidermidis ATCC 12228, value in brackets
[28] = M. luteus ATCC 10240, value in brackets
[29] = E. faecalis ATCC 29212, value in brackets
[30] = F. nucleatum ATCC 25586, value in brackets
[31] = K. pneumoniae ATCC 13883, value in brackets

O=S(=O)([O-])[O-].[Ag+].[Ag+] [Ag2SO4, silver sulfate]
MBC ([1]; P. aeruginosa ATCC 9027): 125 mg/L | MIC ([1]; P. aeruginosa ATCC 9027): 62.5 mg/L | MBC [1, 17]: 0.4 µM/mL | MIC [1, 17]: 0.2 µM/mL | MBC ([2]; P. intermedia ATCC 25611): 7.8 mg/L | MIC ([2]; P. intermedia ATCC 25611): 7.8 mg/L | MBC [2, 18]: 0.025 µM/mL | MIC [2, 18]: 0.025 µM/mL | IC50 [3]: > 10 µM | MBC ([4]; E. coli ATCC 25922): 62.5 mg/L | MIC ([4]; E. coli ATCC 25922): 62.5 mg/L | MBC [4, 19]: 0.2 µM/mL | MIC [4, 19]: 0.2 µM/mL | MBC ([5]; B. fragilis ATCC 10240): 1000 mg/L | MIC ([5]; B. fragilis ATCC 10240): 250 mg/L | MBC [5, 20]: 3.2 µM/mL | MIC [5, 20]: 0.8 µM/mL | MBC ([6]; C. perfringens ATCC 13124): 250 mg/L | MIC ([6]; C. perfringens ATCC 13124): 250 mg/L | MBC [6, 21]: 0.8 µM/mL | MIC [6, 21]: 0.8 µM/mL | MBC ([7]; B. subtilis ATCC 6633): 31.3 mg/L | MIC ([7]; B. subtilis ATCC 6633): 31.3 mg/L | MBC [7, 22]: 0.1 µM/mL | MIC [7, 22]: 0.1 µM/mL | MBC ([8]; P. acnes ATCC 11827): 500 mg/L | MIC ([8]; P. acnes ATCC 11827): 125 mg/L | MBC [8, 23]: 1.6 µM/mL | MIC [8, 23]: 0.4 µM/mL | MBC ([9]; V. parvula ATCC 10790): 62.5 mg/L | MIC ([9]; V. parvula ATCC 10790): 62.5 mg/L | MBC [9, 24]: 0.2 µM/mL | MIC [9, 24]: 0.2 µM/mL | MBC ([10]; C. jejunii ATCC 33291): > 1000 mg/L | MIC ([10]; C. jejunii ATCC 33291): 1000 mg/L | MBC [10, 25]: > 3.2 µM/mL | MIC [10, 25]: 3.2 µM/mL | MBC ([11]; S. aureus ATCC 25923): 31.3 mg/L | MIC ([11]; S. aureus ATCC 25923): 15.6 mg/L | MBC [11, 26]: 0.1 µM/mL | MIC [11, 26]: 0.05 µM/mL | MBC ([12]; S. epidermidis ATCC 12228): 31.3 mg/L | MIC ([12]; S. epidermidis ATCC 12228): 15.6 mg/L | MBC [12, 27]: 0.1 µM/mL | MIC [12, 27]: 0.05 µM/mL | MBC ([13]; M. luteus ATCC 10240): 125 mg/L | MIC ([13]; M. luteus ATCC 10240): 15.6 mg/L | MBC [13, 28]: 0.4 µM/mL | MIC [13, 28]: 0.05 µM/mL | MBC ([14]; E. faecalis ATCC 29212): 125 mg/L | MIC ([14]; E. faecalis ATCC 29212): 31.3 mg/L | MBC [14, 29]: 0.4 µM/mL | MIC [14, 29]: 0.1 µM/mL | MBC ([15]; F. nucleatum ATCC 25586): 31.3 mg/L | MIC ([15]; F. nucleatum ATCC 25586): 31.3 mg/L | MBC [15, 30]: 0.1 µM/mL | MIC [15, 30]: 0.1 µM/mL | MBC ([16]; K. pneumoniae ATCC 13883): 31.3 mg/L | MIC ([16]; K. pneumoniae ATCC 13883): 31.3 mg/L | MBC [16, 31]: 0.1 µM/mL | MIC [16, 31]: 0.1 µM/mL

O=[N+]([O-])[O-].[Ag+] [AgNO3, Silver nitrate]
MBC ([1]; P. aeruginosa ATCC 9027): 3.9 mg/L | MIC ([1]; P. aeruginosa ATCC 9027): 3.9 mg/L | MBC [1, 17]: 0.025 µM/mL | MIC [1, 17]: 0.025 µM/mL | MBC ([2]; P. intermedia ATCC 25611): 0.49 mg/L | MIC ([2]; P. intermedia ATCC 25611): 0.49 mg/L | MBC [2, 18]: 0.003 µM/mL | MIC [2, 18]: 0.003 µM/mL | MBC ([4]; E. coli ATCC 25922): 15.6 mg/L | MIC ([4]; E. coli ATCC 25922): 7.8 mg/L | MBC [4, 19]: 0.09 µM/mL | MIC [4, 19]: 0.049 µM/mL | MBC ([5]; B. fragilis ATCC 10240): 62.5 mg/L | MIC ([5]; B. fragilis ATCC 10240): 15.6 mg/L | MBC [5, 20]: 0.37 µM/mL | MIC [5, 20]: 0.09 µM/mL | MBC ([6]; C. perfringens ATCC 13124): 62.5 mg/L | MIC ([6]; C. perfringens ATCC 13124): 62.5 mg/L | MBC [6, 21]: 0.37 µM/mL | MIC [6, 21]: 0.37 µM/mL | MBC ([7]; B. subtilis ATCC 6633): 15.6 mg/L | MIC ([7]; B. subtilis ATCC 6633): 15.6 mg/L | MBC [7, 22]: 0.09 µM/mL | MIC [7, 22]: 0.09 µM/mL | MBC ([8]; P. acnes ATCC 11827): 62.5 mg/L | MIC ([8]; P. acnes ATCC 11827): 62.5 mg/L | MBC [8, 23]: 0.37 µM/mL | MIC [8, 23]: 0.37 µM/mL | MBC ([9]; V. parvula ATCC 10790): 15.6 mg/L | MIC ([9]; V. parvula ATCC 10790): 7.8 mg/L | MBC [9, 24]: 0.09 µM/mL | MIC [9, 24]: 0.049 µM/mL | MBC ([10]; C. jejunii ATCC 33291): 125 mg/L | MIC ([10]; C. jejunii ATCC 33291): 62.5 mg/L | MBC [10, 25]: 0.74 µM/mL | MIC [10, 25]: 0.37 µM/mL | MBC ([11]; S. aureus ATCC 25923): 31.3 mg/L | MIC ([11]; S. aureus ATCC 25923): 7.8 mg/L | MBC [11, 26]: 0.185 µM/mL | MIC [11, 26]: 0.049 µM/mL | MBC ([12]; S. epidermidis ATCC 12228): 15.6 mg/L | MIC ([12]; S. epidermidis ATCC 12228): 3.9 mg/L | MBC [12, 27]: 0.09 µM/mL | MIC [12, 27]: 0.025 µM/mL | MBC ([13]; M. luteus ATCC 10240): 31.3 mg/L | MIC ([13]; M. luteus ATCC 10240): 3.9 mg/L | MBC [13, 28]: 0.185 µM/mL | MIC [13, 28]: 0.025 µM/mL | MBC ([14]; E. faecalis ATCC 29212): 31.3 mg/L | MIC ([14]; E. faecalis ATCC 29212): 15.6 mg/L | MBC [14, 29]: 0.185 µM/mL | MIC [14, 29]: 0.09 µM/mL | MBC ([15]; F. nucleatum ATCC 25586): 0.98 mg/L | MIC ([15]; F. nucleatum ATCC 25586): 0.49 mg/L | MBC [15, 30]: 0.006 µM/mL | MIC [15, 30]: 0.003 µM/mL | MBC ([16]; K. pneumoniae ATCC 13883): 7.8 mg/L | MIC ([16]; K. pneumoniae ATCC 13883): 7.8 mg/L | MBC [16, 31]: 0.049 µM/mL | MIC [16, 31]: 0.049 µM/mL

Reference: article PMC8869984, “Multifunctional Silver(I) Complexes with Metronidazole Drug Reveal Antimicrobial Properties and Antitumor Activity against Human Hepatoma and Colorectal Adenocarcinoma Cells” (Cancers, 2022)
